# Data as given in US20060247263A1, “Substituted heterocyclic compounds and methods of use” (Amgen Inc., priority 2005, published 2006).
# Test system: LPS induced TNF release
# Assay: Lipopolysaccharide-Activated THP1 Cell TNF Production Assay
# Type: cell-based
# Conditions: Homo sapiens, THP-1, THP1 cells, 3 h at 37° C., secreted TNF-α
# Procedure: Lipopolysaccharide-Activated THP1 Cell TNF Production Assay
# THP1 cells are resuspended in fresh THP1 media (RPMI 1640, 10% heat-inactivated FBS, 1XPGS, 1XNEAA, plus 30 μM βME) at a concentration of 1E6/mL. One hundred microliters of cells per well are plated in a polystyrene 96-well tissue culture. One microgram per mL of bacterial LPS is prepared in THP1 media and is transferred to the wells. Test compounds are dissolved in 100% DMSO and are serially diluted 3 fold in a polypropylene 96-well microtiter plate (drug plate). HI control and LO control wells contain only DMSO. One microliter of test compound from the drug plate followed by 10 μL of LPS are transferred to the cell plate. The treated cells are induced to synthesize and secrete TNF-α at 37° C. for 3 h. Forty microliters of conditioned media are transferred to a 96-well polypropylene plate containing 110 μL of ECL buffer (50 mM Tris-HCl pH 8.0, 100 mM NaCl, 0.05% Tween 20, 0.05% NaN3 and 1% FBS) supplemented with 0.44 nM MAB610 monoclonal Ab (R&D Systems), 0.34 nM ruthenylated AF210NA polyclonal Ab (R&D Systems) and 44 μg/mL sheep anti-mouse M280 Dynabeads (Dynal). After a 2 h incubation at RT with shaking, the reaction is read on the ECL M8 Instrument (IGEN Inc.). A low voltage is applied to the ruthenylated TNF-α immune complexes, which in the presence of TPA (the active component in Origlo), results in a cyclical redox reaction generating light at […]. The amount of secreted TNF-α in the presence of compound compared with that in the presence of DMSO vehicle alone (HI control) is calculated using the formula:% control (POC)=(cpd−average LO)/(average HI−average LO)*100. Data (consisting of POC and inhibitor concentration in μM) is fitted to a 4-parameter equation (y=A+((B−A)/(1+((x/C)ˆD))), where A is the minimum y (POC) value, B is the maximum y (POC), C is the x (cpd concentration) at the point of inflection and D is the slope factor) using a Levenburg-Marquardt non-linear regression algorithm.
row,Compound,IC50 [µM]
1,"CN(c1cc(-c2ccccc2)c2ncn(C)c2c1)c1ccnc(NCCc2cccnc2)n1 [N4-methyl-N-4-(3-methyl-7-phenyl-3H-benzo[d]imidazol-5-yl)-N-2-(2-(pyridin-3-yl)ethyl)pyrimidine-2,4-diamine]",≤ 20
2,"CC(Cc1cccc(CN)c1)Nc1nccc(N(C)c2cc(-c3ccccc3)c3c(c2)ncn3C)n1 (stereo not shown) [N2-(1-(3-(aminomethyl)phenyl)propan-2-yl)-N-4-methyl-N-4-(1-methyl-7-phenyl-1H-benzo[d]imidazol-5-yl)pyrimidine-2,4-diamine]",≤ 20
3,CN(c1cc(-c2ccccc2)c2ncn(C)c2c1)c1ccnc(NC2CCN(C(=O)OC(C)(C)C)CC2)n1 [tert-Butyl 4-(4-(methyl(3-methyl-7-phenyl-3H-benzo[d]imidazol-5-yl)amino)-pyrimidin-2-ylamino)piperidine-1-carboxylate],≤ 20
4,"CN(c1cc(-c2ccccc2)c2ncn(C)c2c1)c1ccnc(NCCc2ccccc2Cl)n1 [N2-(2-chlorophenethyl)-N-4-methyl-N-4-(3-methyl-7-phenyl-3H-benzo[d]imidazol-5-yl)pyrimidine-2,4-diamine]",≤ 20
5,"CN(c1cc(-c2ccccc2)c2ncn(C)c2c1)c1ccnc(NCCOc2ccccc2)n1 [N-4-methyl-N-4-(3-methyl-7-phenyl-3H-benzo[d]imidazol-5-yl)-N-2-(2-phenoxy-ethyl)pyrimidine-2,4-diamine]",≤ 20

# Continued, values first:
row,IC50 [µM],Compound
1,≤ 20,"C[C@H](N)c1cccc(C[C@H](C)Nc2nccc(N(C)c3cc(-c4ccccc4)c4ncn(C)c4c3)n2)c1 [N2-((S)-1-(3-((S)-1-Aminoethyl)phenyl)propan-2-yl)-N-4-methyl-N-4-(3-methyl-7-phenyl-3H-benzo[d]imidazol-5-yl)pyrimidine-2,4-diamine]"
2,≤ 20,"CC(Cc1cccc(CN=[N+]=[N-])c1)Nc1nccc(N(C)c2cc(-c3ccccc3)c3ncn(C)c3c2)n1 (stereo not shown) [N2-(1-(3-(Azidomethyl)phenyl)propan-2-yl)-N-4-methyl-N-4-(3-methyl-7-phenyl-3H-benzo[d]imidazol-5-yl)pyrimidine-2,4-diamine]"
3,≤ 20,"CN(c1cc(-c2ccccc2)c2nc[nH]c2c1)c1ccnc(NCCc2cccnc2)n1 [N4-Methyl-N-4-(7-phenyl-3H-benzo[d]imidazol-5-yl)-N-2-(2-(pyridin-3-yl)ethyl)-pyrimidine-2,4-diamine]"
4,≤ 20,"CC(Cc1cccc(CN)c1)Nc1nccc(N(C)c2cc(-c3ccccc3)c3ncn(C)c3c2)n1 (stereo not shown) [N2-(1-(3-(Aminomethyl)phenyl)propan-2-yl)-N-4-methyl-N-4-(3-methyl-7-phenyl-3H-benzo[d]imidazol-5-yl)pyrimidine-2,4-diamine]"
5,≤ 20,"CC(C)CNc1nccc(N(C)c2cc(-c3ccccc3)c3ncn(C)c3c2)n1 [N2-isobutyl-N-4-methyl-N-4-(3-methyl-7-phenyl-3H-benzo[d]imidazol-5-yl)-pyrimidine-2,4-diamine]"
6,≤ 20,CC(Cc1cccc(CO)c1)Nc1nccc(N(C)c2cc(-c3ccccc3)c3ncn(C)c3c2)n1 (stereo not shown) [(3-(2-(4-(Methyl(3-methyl-7-phenyl-3H-benzo[d]imidazol-5-yl)amino)pyrimidin-2-ylamino)propyl)phenyl)methanol]
7,≤ 20,"CN(c1cc(-c2ccccc2)c2ncn(C)c2c1)c1ccnc(NC2CCC(N)CC2)n1 (stereo not shown) [N2-((1 s,4s)-4-aminocyclohexyl)-N-4-methyl-N-4-(3-methyl-7-phenyl-3H-benzo[d]imidazol-5-yl)pyrimidine-2,4-diamine]"
8,≤ 20,CN(c1cc(-c2ccccc2)c2ncn(C)c2c1)c1ccnc(NC2CCNCC2)n1
